In ChEMBL document CHEMBL1136244, “Synthesis and structure-activity relationships of 1-arylmethyl-3-(2-aminopropyl)-5-aryl-6-methyluracils as potent GnRH receptor antagonists” (Bioorg Med Chem Lett, 2003):

target: T1, Gonadotropin-releasing hormone receptor (Homo sapiens, UniProt P30968); test: Ability to inhibit des-Gly10[125I]Tyr5,DLeu6,NMeLeu7, Pro9-NEt]-GnRH radioligand binding to the cloned human gonadotropin-releasing hormone receptor stably expressed in HEK293 cells; type: cell-based
T1 sequence (P30968 whole entry): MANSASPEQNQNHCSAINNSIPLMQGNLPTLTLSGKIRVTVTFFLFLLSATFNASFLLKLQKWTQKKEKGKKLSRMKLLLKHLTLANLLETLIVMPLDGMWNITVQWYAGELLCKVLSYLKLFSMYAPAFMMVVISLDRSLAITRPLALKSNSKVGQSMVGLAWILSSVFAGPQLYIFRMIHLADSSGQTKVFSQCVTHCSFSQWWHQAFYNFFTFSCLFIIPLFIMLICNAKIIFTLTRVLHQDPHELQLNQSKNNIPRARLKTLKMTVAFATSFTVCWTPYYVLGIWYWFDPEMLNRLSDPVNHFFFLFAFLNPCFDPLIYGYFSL

Row | Ki | Structure (SMILES)
1 | 280 nM | COc1cccc(-c2c(C)n(Cc3c(F)cccc3F)c(=O)n(CC(C)NCc3ccccc3)c2=O)c1 (centres undefined)
2 | 330 nM | COc1cccc(-c2c(C)n(Cc3c(F)cccc3F)c(=O)n(C[C@@H](C)N(C)Cc3ccccc3)c2=O)c1
3 | 130 nM | COc1cccc(-c2c(C)n(Cc3c(F)cccc3F)c(=O)n(C[C@@H](C)NCc3ccccc3)c2=O)c1
4 | 5.2 nM | COc1cccc(-c2c(C)n(Cc3c(F)cccc3F)c(=O)n(C[C@@H](C)N(C)CCc3ccccn3)c2=O)c1
5 | 210 nM | COc1cccc(-c2c(C)n(Cc3c(F)cccc3F)c(=O)n(C[C@@H]3CCCN3Cc3ccccn3)c2=O)c1
6 | 12 nM | COc1cccc(-c2c(C)n(Cc3c(F)cccc3F)c(=O)n(CC(C)N(C)CCc3ccccn3)c2=O)c1 (centres undefined)
7 | 890 nM | COc1cccc(-c2c(C)n(Cc3c(F)cccc3F)c(=O)n(C[C@H](C)N(C)CCc3ccccn3)c2=O)c1
8 | 96 nM | COc1cccc(-c2c(C)n(Cc3c(F)cccc3F)c(=O)n(CCN(C)Cc3ccccn3)c2=O)c1
9 | 18000 nM | COc1cccc(-c2c(C)n(Cc3c(F)cccc3F)c(=O)n(C[C@H](C)N)c2=O)c1
10 | 79 nM | COc1cccc(-c2c(C)n(Cc3c(F)cccc3F)c(=O)n(C[C@@H](C)NCCc3ccccn3)c2=O)c1
11 | 310 nM | COc1cccc(-c2c(C)n(Cc3c(F)cccc3F)c(=O)n(CC(C)N(C)Cc3ccccc3)c2=O)c1 (centres undefined)
12 | 81 nM | COc1cccc(-c2c(C)n(Cc3c(F)cccc3F)c(=O)n(CC(C)NCCCOCC(C)C)c2=O)c1 (centres undefined)
13 | 780 nM | COc1cccc(-c2c(C)n(Cc3c(F)cccc3F)c(=O)n(C[C@H](C)NCCc3ccccn3)c2=O)c1
14 | 240 nM | COc1cccc(-c2c(C)n(Cc3c(F)cccc3F)c(=O)n(CC(C)N(C)CCCOCC(C)C)c2=O)c1 (centres undefined)
15 | 550 nM | COc1cccc(-c2c(C)n(Cc3c(F)cccc3F)c(=O)n(CCNCc3ccccn3)c2=O)c1
16 | 32 nM | COc1cccc(-c2c(C)n(Cc3c(F)cccc3F)c(=O)n(C[C@H]3CCCN3Cc3ccccn3)c2=O)c1
17 | 2500 nM | COc1cccc(-c2c(C)n(Cc3c(F)cccc3F)c(=O)n(C[C@@H](C)N)c2=O)c1
18 | 250 nM | COc1cccc(-c2c(C)n(Cc3c(F)cccc3F)c(=O)n(C[C@H](C)N(C)Cc3ccccc3)c2=O)c1
19 | 170 nM | COc1cccc(-c2c(C)n(Cc3c(F)cccc3F)c(=O)n(CC(C)NCCc3ccccn3)c2=O)c1 (centres undefined)
20 | 53 nM | COc1cccc(-c2c(C)n(Cc3c(F)cccc3F)c(=O)n(CC(C)NCc3ccccn3)c2=O)c1 (centres undefined)
21 | 140 nM | COc1cccc(-c2c(C)n(Cc3c(F)cccc3F)c(=O)n(C[C@H](C)NCc3ccccc3)c2=O)c1
22 | 460 nM | COc1cccc(-c2c(C)n(Cc3c(F)cccc3F)c(=O)n(C[C@H](C)NCc3ccccn3)c2=O)c1
23 | 15 nM | COc1cccc(-c2c(C)n(Cc3c(F)cccc3F)c(=O)n(C[C@@H](C)NCc3ccccn3)c2=O)c1

tested on: not listed separately; test: Inhibition of GnRH-stimulated [Ca2+] influx; type: functional

Row | IC50 | Structure (SMILES)
24 | 2.5 nM | COc1cccc(-c2c(C)n(Cc3c(F)cccc3F)c(=O)n(C[C@@H](C)N(C)Cc3ccccn3)c2=O)c1
